Assay results taken from PMC13308190, “Endothelial progenitor cell susceptibility to DNA damaging and DDR-modulating compounds determines endothelial differentiation accuracy” (Stem Cell Research & Therapy, 2026).
Blank lines part the entries; values can stand above or below the molecule they belong to.

Experiments:
Format in all cases: cell-based, mouse
mESC [1] = assay: RT-qPCR mRNA expression; details: for Cdkn1a mRNA / Cdkn2a mRNA / Glb1 mRNA / Il6 mRNA / Il8 mRNA / Tp53 mRNA: Fig 7A; for Brca1 mRNA / Chk1 mRNA / Rad51 mRNA: Fig 5C; for Atp7a mRNA / Atp7b mRNA / Ctr2 mRNA / Mdr1 mRNA / Mrp1 mRNA / Oct2 mRNA: Fig 2D
Experimental: Total RNA was purified using the RNeasy Mini Kit (Qiagen, Hilden, Germany). Reverse transcriptase (RT) reaction was performed with the HighCapacity cDNA Reverse Transcription Kit (Applied Biosystems, Darmstadt, Germany) using 900–2000 ng of RNA. Quantitative RT-qPCR analysis was performed using following conditions: (1) 95 °C–10 min; (2) 45 amplification cycles with 95 °C–15 s, 55 °C–15 s, and 72 °C–17 s; (3) 95 °C–1 min, 55 °C–1 min, 65 °C–5 s. If not stated otherwise, analyses were performed in technical triplicates using pooled samples from two independent experiments (each performed with biological duplicates) by use of a CFX96 cycler (BioRad) and the SensiMix SYBR Kit (Bioline, London, UK). The primers used for mRNA expression analyses are listed in Supplementary Table 1. To ensure the specificity of the amplification product, melting curves were recorded at the end of the run. mRNA expression levels were normalized to β-Actin and Gapdh. Relative mRNA expression in mESC or corresponding untreated controls was set to 1.0. Only changes in gene expression of ≤ 0.5- and ≥ 2-fold were considered as biologically relevant. Fold-changes in gene expression are summarized in Supplementary Table 2.

EC d6 [2] = assay: ZO1 tight junction immunofluorescence; details: analysed 2 days later
EC d4 [3] = assay: Dil-acLDL uptake; details: EC d4 treated 48 h
Experimental: To monitor prototypical functions of endothelial cells, the uptake of fluorescent 1,1-dioctadecyl-3,3,3,3-tetra-methylindocarbocyanine-labeled acetylated LDL (Dil-acLDL) was examined. Briefly, cells were incubated with Dil-acLDL (10 µg/ml, 4 h, 37 °C). After fixation (3.7% cold formaldehyde/PBS (15 min, RT) nuclei were counterstained with DAPI. The uptake of DiI-acLDL was analyzed by fluorescence microscopy (Olympus BX43, 20x objective). Additionally, the response of differentiated EC to inflammatory cytokines was measured. After treatment with a pro-inflammatory cytokine mixture (TNFα/IL-1β, 10 ng/mL) for 1 h, mRNA expression of activated EC markers E-selectin, Icam-1, Vcam-1, Ccl2, eNos, iNos was analyzed (RT-qPCR).

mESC [4] = assay: EdU incorporation (S-phase activity); details: mESC 24 h
mESC [5] = assay: DNA fiber spreading assay; details: mESC 24 h; HU: 5 mM, 1 h
Experimental: (§1) To analyze DNA replication fork progression, the DNA fiber spreading assay was performed. Briefly, cells were pulse-labeled with 20 µM CldU (20 min, 37 °C, 5% C0_2) and immediately afterwards with 200 µM IdU (20 min, 37 °C, 5% C02). Cell suspension was applied onto glass slides followed by cell lysis (0.5% SDS, 200 mM Tris–HCl, 50 mM EDTA). After incubation (6 min, RT), slides were tilted upwards to stretch the fibers, dried 6 min lying horizontally flat and fixed (5 min, RT) in methanol: acetic acid (3:1). After drying (7 min, lying horizontally flat) slides were stored overnight in 70% ethanol (4 °C). The next day samples were incubated in 100% methanol (5 min, RT) followed by denaturation in 2.5 M HCl (1 h, RT) and blocking (5% BSA in PBS, 1 h, 37 °C). DNA Fibers were stained with rat anti-BrdU (1:40) for CldU detection and mouse anti-BrdU (1:70) for IdU detection (in 0.5% BSA/PBS; 1 h, RT). After washing (0.05% Tween 20 in PBS and PBS) incubation with secondary antibodies anti-rat 488 (1:400) and anti-mouse 555 (1:250) was performed (1 h, RT, 0.5% BSA in PBS). Following washing with 0.05% Tween 20 in PBS and PBS, the slides were mounted with Fluoroshield (Sigma [Steinheim, Germany]). DNA fibers were analyzed microscopically (Olympus BX43 fluorescence microscope [40 objective]). The length of CldU (green) and IdU (red) tract was measured using ImageJ software, analyzing 200 fibers per experimental condition.

EC d6 [6] = assay: DNA fiber spreading assay; details: EC d6 24 h; HU: 5 mM, 1 h
Experimental: as §1

EC d4 [7] = assay: Doxorubicin import/export (flow cytometry); details: EC d4, 2 h pulse then 6 h post-incubation
Experimental: Import and export of Dox were examined via flow cytometry. […] Trypsinized cells were washed with PBS and pelleted by centrifugation (200 x g, 5 min, 4 °C). After additional washing, cells were resuspended in PBS.

EC d6 [8] = assay: Beta-galactosidase staining (senescence); details: EC d6 24 h + 24 h post incubation
Experimental: (§2) Beta-galactosidase activity was analyzed using the Cellular Senescence Assay Kit (Cell Biolabs, Inc., San Diego, CA, USA) according to the manufacturer’s instructions. After treatment and/or post-incubation period, the cells were fixed and stained (overnight, 37 °C). For control, untreated cells were incubated with working solution containing citrate-Na2HPO4 buffer at pH 4. The cells were analyzed by light microscopy (Axiovert 40 C, Carl Zeiss AG, 20x objective) and the fraction of beta-galactosidase positive (blue) cells was calculated (5 images per sample).

EC d4 [9] = assay: Beta-galactosidase staining (senescence); details: EC d4 48 h
Experimental: as §2

EC d6 [10] = assay: EdU incorporation (S-phase activity); details: EC d6 24 h; Dox up to 0.1 µM
EC d4 [11] = assay: DNA fiber spreading assay; details: EC d4 48 h; HU: 5 mM, 1 h
Experimental: as §1

[12] = mESC + 10 µM 24 h + 24 h post incubation
[13] = mESC + 20 µM 24 h + 24 h post incubation
[14] = mESC + 0.05 µM 24 h + 24 h post incubation
[15] = mESC + 0.1 µM 24 h + 24 h post incubation

SMILES: O=c1c2ccccc2nc(/C=C/c2cccnc2)n1Cc1ccccc1 [B02]
- Cdkn1a mRNA (mESC [1]; [12]): 0.89 Fold of untreated control
- Cdkn2a mRNA (mESC [1]; [12]): 0.97 Fold of untreated control
- Glb1 mRNA (mESC [1]; [12]): 1.06 Fold of untreated control
- Il6 mRNA (mESC [1]; [12]): 0.98 Fold of untreated control
- Il8 mRNA (mESC [1]; [12]): 0.76 Fold of untreated control
- Tp53 mRNA (mESC [1]; [12]): 1.09 Fold of untreated control
- Cdkn1a mRNA (mESC [1]; [13]): 0.94 Fold of untreated control
- Cdkn2a mRNA (mESC [1]; [13]): 0.89 Fold of untreated control
- Glb1 mRNA (mESC [1]; [13]): 1.06 Fold of untreated control
- Il6 mRNA (mESC [1]; [13]): 1.35 Fold of untreated control
- Il8 mRNA (mESC [1]; [13]): 0.93 Fold of untreated control
- Tp53 mRNA (mESC [1]; [13]): 0.98 Fold of untreated control
- Brca1 mRNA (mESC [1]; mESC + 20 µM 24 h): 0.95 Fold of mESC
- Chk1 mRNA (mESC [1]; mESC + 20 µM 24 h): 1.33 Fold of mESC
- Rad51 mRNA (mESC [1]; mESC + 20 µM 24 h): 0.90 Fold of mESC
- Pgc1a mRNA (mESC [1]; mESC + 20 µM 24 h, Fig 6D): 2.40 Fold of untreated control
- ZO1 assembly in treated EC d6 (EC d6 [2]): clearly visible gaps
- LDL uptake in EC d6 progeny of treated EC d4 (EC d4 [3]): strongest functional defect
- number of EdU-positive cells (mESC [4]): not

- Dox efflux capacity as compared to the other differentiation stages (EC d4 [7]): enhanced export activity
SMILES: COc1cccc2c1C(=O)c1c(O)c3c(c(O)c1C2=O)C[C@@](O)(C(=O)CO)C[C@@H]3O[C@H]1C[C@H](N)[C@H](O)[C@H](C)O1 [Dox, doxorubicin]
- replication fork progression (mESC [5]): accelerated fork progression
- replication fork progression (EC d6 [6]): did not influence fork speed
- Cdkn1a mRNA (mESC [1]; [14]): 2.20 Fold of untreated control
- Cdkn2a mRNA (mESC [1]; [14]): 2.02 Fold of untreated control
- Glb1 mRNA (mESC [1]; [14]): 1.22 Fold of untreated control
- Il6 mRNA (mESC [1]; [14]): 2.74 Fold of untreated control
- Il8 mRNA (mESC [1]; [14]): 1.29 Fold of untreated control
- Tp53 mRNA (mESC [1]; [14]): 0.86 Fold of untreated control
- Atp7a mRNA (mESC [1]; mESC + 0.05 µM 24 h): 2.50 Fold of control
- Atp7b mRNA (mESC [1]; mESC + 0.05 µM 24 h): 1.82 Fold of control
- Ctr2 mRNA (mESC [1]; mESC + 0.05 µM 24 h): 2.95 Fold of control
- Mdr1 mRNA (mESC [1]; mESC + 0.05 µM 24 h): 4.03 Fold of control
- Mrp1 mRNA (mESC [1]; mESC + 0.05 µM 24 h): 2.38 Fold of control
- Oct2 mRNA (mESC [1]; mESC + 0.05 µM 24 h): 5.33 Fold of control
- Gpx1 mRNA (mESC [1]; mESC + 0.05 µM 24 h, Fig 6C): 1.54 Fold of untreated control
- Gpx4 mRNA (mESC [1]; mESC + 0.05 µM 24 h, Fig 6C): 0.62 Fold of untreated control
- Gstm1 mRNA (mESC [1]; mESC + 0.05 µM 24 h, Fig 6C): 2.08 Fold of untreated control
- Hmox1 mRNA (mESC [1]; mESC + 0.05 µM 24 h, Fig 6C): 1.14 Fold of untreated control
- Pgc1a mRNA (mESC [1]; mESC + 0.05 µM 24 h, Fig 6C): 1.78 Fold of untreated control
- Sod1 mRNA (mESC [1]; mESC + 0.05 µM 24 h, Fig 6C): 1.30 Fold of untreated control
- Sod2 mRNA (mESC [1]; mESC + 0.05 µM 24 h, Fig 6C): 1.10 Fold of untreated control
- Gpx4 mRNA (mESC [1]; mESC + 0.05 µM 24 h, Fig 6F): 1.03 Fold of untreated control
- Slc7a11 mRNA (mESC [1]; mESC + 0.05 µM 24 h, Fig 6F): 0.99 Fold of untreated control
- Cdkn1a mRNA (mESC [1]; [15]): 2.09 Fold of untreated control
- Cdkn2a mRNA (mESC [1]; [15]): 2.49 Fold of untreated control
- Glb1 mRNA (mESC [1]; [15]): 1.35 Fold of untreated control
- Il6 mRNA (mESC [1]; [15]): 2.84 Fold of untreated control
- Il8 mRNA (mESC [1]; [15]): 1.07 Fold of untreated control
- Tp53 mRNA (mESC [1]; [15]): 0.87 Fold of untreated control
- Atp7a mRNA (mESC [1]; mESC + 0.1 µM 24 h): 3.09 Fold of control
- Atp7b mRNA (mESC [1]; mESC + 0.1 µM 24 h): 2.42 Fold of control
- Ctr2 mRNA (mESC [1]; mESC + 0.1 µM 24 h): 4.05 Fold of control
- Mdr1 mRNA (mESC [1]; mESC + 0.1 µM 24 h): 6.26 Fold of control
- Mrp1 mRNA (mESC [1]; mESC + 0.1 µM 24 h): 2.51 Fold of control
- Oct2 mRNA (mESC [1]; mESC + 0.1 µM 24 h): 0.75 Fold of control
- Brca1 mRNA (mESC [1]; mESC + 0.1 µM 24 h): 1.93 Fold of mESC
- Chk1 mRNA (mESC [1]; mESC + 0.1 µM 24 h): 0.68 Fold of mESC
- Rad51 mRNA (mESC [1]; mESC + 0.1 µM 24 h): 1.36 Fold of mESC
- Pgc1a mRNA (mESC [1]; mESC + 0.1 µM 24 h, Fig 6D): 10.69 Fold of untreated control
- Gpx4 mRNA (mESC [1]; mESC + 0.1 µM 24 h, Fig 6F): 1.05 Fold of untreated control
- Slc7a11 mRNA (mESC [1]; mESC + 0.1 µM 24 h, Fig 6F): 1.20 Fold of untreated control
- ZO1 assembly in treated EC d6 (EC d6 [2]): clearly visible gaps
- LDL uptake in EC d6 progeny of treated EC d4 (EC d4 [3]): noticably reduced LDL uptake
- percentage of beta-Gal-positive cells (EC d6 [8]): increase
- percentage of beta-Gal-positive cells (EC d4 [9]): increase
- number of EdU-positive cells (mESC [4]): significant drop
- number of EdU-positive cells (EC d6 [10]): remained unaffected

SMILES: Nc1ccccc1NC(=O)c1ccc(CNC(=O)OCc2cccnc2)cc1 [EST, entinostat]
- replication fork progression (mESC [5]): promoted new DNA strand synthesis
- replication fork progression (EC d6 [6]): opposite effects
- replication fork progression (EC d4 [11]): opposite effects
- Cdkn1a mRNA (mESC [1]; [12]): 2.08 Fold of untreated control
- Cdkn2a mRNA (mESC [1]; [12]): 5.82 Fold of untreated control
- Glb1 mRNA (mESC [1]; [12]): 0.47 Fold of untreated control
- Il6 mRNA (mESC [1]; [12]): 6.25 Fold of untreated control
- Il8 mRNA (mESC [1]; [12]): 0.83 Fold of untreated control
- Tp53 mRNA (mESC [1]; [12]): 0.83 Fold of untreated control
- Brca1 mRNA (mESC [1]; mESC + 20 µM 24 h): 0.52 Fold of mESC
- Chk1 mRNA (mESC [1]; mESC + 20 µM 24 h): 0.27 Fold of mESC
- Rad51 mRNA (mESC [1]; mESC + 20 µM 24 h): 0.29 Fold of mESC
- Pgc1a mRNA (mESC [1]; mESC + 20 µM 24 h, Fig 6D): 184.58 Fold of untreated control
- ZO1 assembly in treated EC d6 (EC d6 [2]): clearly visible gaps
- percentage of beta-Gal-positive cells (EC d6 [8]): increase
- percentage of beta-Gal-positive cells (EC d4 [9]): increase
